Data taken from patent US20080051418A1, “Arylalkanoic Acid Derivative” (priority 2004, published 2008).

Row | Structure (SMILES) | melting point [°C]
1 | CCCOc1cc(COc2c(CC)cccc2CC(=O)O)n(Cc2ccc3ccccc3n2)n1 [Example 7, (3-ethyl-2-{[3-propoxy-1-(quinolin-2-ylmethyl)-1H-pyrazol-5-yl]methoxy}phenyl)acetic acid] | 110 to 111
2 | COc1cccc(CC(=O)O)c1OCc1cc(OC(C)C)nn1Cc1ccc2ccccc2n1 [Example 8, (2-{[3-isopropoxy-1-(quinolin-2-ylmethyl)-1H-pyrazol-5-yl]methoxy}-3-methoxyphenyl)acetic acid] | 129 to 130
3 | COc1cccc(CC(=O)O)c1OCc1cc(OCc2ccc3ccccc3n2)n(C(C)C)n1 [Example 9, (2-{[1-isopropyl-5-(quinolin-2-ylmethoxy)-1H-pyrazol-3-yl]methoxy}-3-methoxyphenyl)acetic acid] | 84 to 85
4 | COc1cccc(CC(=O)O)c1OCCCc1cc(OC(C)C)nn1Cc1ccc2ccccc2n1 [Example 10, (2-{3-[3-isopropoxy-1-(quinolin-2-ylmethyl)-1H-pyrazol-5-yl]propoxy}-3-methoxyphenyl)acetic acid] | 129 to 130
5 | CCCOc1cc(CCCOc2c(CC(=O)O)cccc2OC)n(Cc2ccc3ccccc3n2)n1 [Example 11, (3-methoxy-2-{3-[3-propoxy-1-(quinolin-2-ylmethyl)-1H-pyrazol-5-yl]propoxy}phenyl)acetic acid] | 97 to 98
6 | CCOc1cccc(CC(=O)O)c1OCCCc1cc(OC(C)C)nn1Cc1ccc(Cl)cc1Cl [Example 23, (2-{3-[1-(2,4-dichlorobenzyl)-3-isopropoxy-1H-pyrazol-5-yl]propoxy}-3-ethoxyphenyl)acetic acid] | 132 to 133
7 | Cc1cccc(CC(=O)O)c1OCCCc1cc(OC(C)C)nn1Cc1ccc(Cl)cc1Cl [Example 24, (2-{3-[1-(2,4-dichlorobenzyl) -3-isopropoxy-1H-pyrazol-5-yl]propoxy}-3-methylphenyl)acetic acid] | 70 to 71
8 | CCOc1cc(CCCOc2c(CC(=O)O)cccc2OC)n(Cc2ccc(Cl)cc2Cl)n1 [Example 26, (2-{3-[1-(2,4-dichlorobenzyl)-3-ethoxy-1H-pyrazol-5-yl]propoxy}-3-methoxyphenyl)acetic acid] | 109 to 110
9 | CCc1cccc(CC(=O)O)c1OCCCc1cc(OC(C)C)nn1Cc1ccc(Cl)cc1Cl [Example 29, (2-{3-[1-(2,4-dichlorobenzyl)-3-isopropoxy-1H-pyrazol-5-yl]propoxy}-3-ethylphenyl)acetic acid] | 98 to 99
10 | CC(C)Oc1cc(CCCOc2nn(C)cc2CC(=O)O)n(Cc2ccc(Cl)cc2Cl)n1 [Example 32, (3-{3-[1-(2,4-dichlorobenzyl)-3-isopropoxy-1H-pyrazol-5-yl]propoxy}-1-methyl-1H-pyrazol-4-yl)acetic acid] | 96 to 97
11 | COc1cccc(CC(=O)O)c1OCc1cc(OC(C)C)nn1Cc1ccc(Cl)cc1Cl [Example 50, (2-{[1-(2,4-dichlorobenzyl)-3-isopropoxy-1H-pyrazol-5-yl]methoxy}-3-methoxyphenyl)acetic acid] | 127 to 128
12 | CC(C)n1nc(COc2ccccc2CC(=O)O)cc1OCc1ccc2ccccc2n1 [Example 55, (2-{[1-isopropyl-5-(quinolin-2-ylmethoxy)-1H-pyrazol-3-yl]methoxy}phenyl)acetic acid] | 116 to 117
13 | COc1cccc(CC(=O)O)c1OCCCc1cc(OC(C)C)nn1Cc1c(F)cccc1Cl [Example 67, (2-{3-[1-(2-chloro-6-fluorobenzyl)-3-isopropoxy-1H-pyrazol-5-yl]propoxy}-3-methoxyphenyl)acetic acid] | 97 to 98
14 | Cc1cc(Cl)ccc1Cn1nc(OC(C)C)cc1CCCOc1ncccc1CC(=O)O [Example 74, (2-{3-[1-(4-chloro-2-methylbenzyl)-3-isopropoxy-1H-pyrazol-5-yl]propoxy}pyridin-3-yl)acetic acid] | 97 to 98
15 | CCCOc1cc(CCCOc2c(CC(=O)O)cccc2OC)n(Cc2ccc(Cl)cc2)n1 [Example 81, (2-{3-[1-(4-chlorobenzyl)-3-propoxy-1H-pyrazol-5-yl]propoxy}-3-methoxyphenyl)acetic acid] | 131 to 132
16 | CCCOc1cc(CCCOc2nn(C)cc2CC(=O)O)n(Cc2ccc(Cl)cc2Cl)n1 [Example 88, (3-{3-[1-(2,4-dichlorobenzyl)-3-propoxy-1H-pyrazol-5-yl]propoxy}-1-methyl-1H-pyrazol-4-yl)acetic acid] | 77 to 81
17 | CCCOc1cc(CCCOc2nn(Cc3ccccc3)cc2CC(=O)O)n(Cc2ccc(F)cc2F)n1 [Example 90, (1-benzyl-3-{3-[1-(2,4-difluorobenzyl)-3-propoxy-1H-pyrazol-5-yl]propoxy}-1H-pyrazol-4-yl)acetic acid] | 94 to 95
18 | CC(C)Oc1cc(CCCOc2ncccc2CC(=O)O)n(Cc2ccc(Cl)cc2OC(C)C)n1 [Example 94, (2-{3-[1-(4-chloro-2-isopropoxybenzyl)-3-isopropoxy-1H-pyrazol-5-yl]propoxy}pyridin-3-yl)acetic acid] | 82 to 84
19 | CCOc1cc(Cc2ccccn2)ccc1CCCOc1c(CC(=O)O)cccc1OC [Example 125, (2-{3-[2-ethoxy-4-(pyridin-2-ylmethyl)phenyl]propoxy}-3-methoxyphenyl)acetic acid] | 97.5 to 98.5
20 | CCn1cc(CC(=O)O)c(OCCCc2ccc(Cc3ccccn3)cc2OC(C)C)n1 [Example 126, (3-{3-[2-isopropoxy-4-(pyridin-2-ylmethyl)phenyl]propoxy}-1-ethyl-1H-pyrazol-4-yl)acetic acid] | 97 to 98
21 | CC(C)c1ncc(CCCOc2nn(C)cc2CC(=O)O)c(Oc2ccc(Cl)cc2Cl)n1 [Example 128, (3-{3-[4-(2,4-dichlorophenoxy)-2-isopropylpyrimidin-5-yl]propoxy}-1-methyl-1H-pyrazol-4-yl)acetic acid] | 107 to 108
22 | CC(C)c1ncc(CCCOc2nn(Cc3ccccc3)cc2CC(=O)O)c(Oc2ccc(Cl)cc2Cl)n1 [Example 129, (3-{3-[4-(2,4-dichlorophenoxy)-2-isopropylpyrimidin-5-yl]propoxy}-1-benzyl-1H-pyrazol-4-yl)acetic acid] | 98 to 99
23 | CCOc1ccc(CCCOc2c(CC(=O)O)cccc2OC)c(Oc2ccc(Cl)cc2Cl)n1 [Example 134, (2-{3-[2-(2,4-dichlorophenoxy)-6-ethoxypyridin-3-yl]propoxy}-3-methoxyphenyl)acetic acid] | 89 to 91
24 | CCOc1ccc(CCCOc2nn(C)cc2CC(=O)O)c(Oc2ccc(Cl)cc2Cl)n1 [Example 135, (3-{3-[2-(2,4-dichlorophenoxy)-6-ethoxypyridin-3-yl]propoxy}-1-methyl-1H-pyrazol-4-yl)acetic acid] | 81 to 83

The next lines start with the values.

Row | melting point [°C] | Structure (SMILES)
25 | 118 to 119 | CCCn1nc(OCc2ccc3ccccc3n2)cc1COc1c(CC)cccc1CC(=O)O [Example 5, (3-ethyl-2-{[1-propyl-3-(quinolin-2-ylmethoxy)-1H-pyrazol-5-yl]methoxy}phenyl)acetic acid]
26 | 111 to 112 | COc1cc(CCCOc2c(CC(=O)O)cccc2OC)n(Cc2ccc(Cl)cc2Cl)n1 [Example 28, (2-{3-[1-(2,4-dichlorobenzyl)-3-methoxy-1H-pyrazol-5-yl]propoxy}-3-methoxyphenyl)acetic acid]
27 | 106 to 107 | CC(C)c1nc(CCCOc2ncccc2CC(=O)O)c(Cc2ccc(Cl)cc2Cl)s1 [Example 53, (2-{3-[5-(2,4-dichlorobenzyl)-2-isopropyl-1,3-thiazol-4-yl]propoxy}pyridin-3-yl)acetic acid]
28 | 94 to 95 | CCc1cccc(CC(=O)O)c1OCCCc1cn(Cc2nc(-c3ccccc3)oc2C)nc1C(C)C [Example 54, [3-ethyl-2-(3-{3-isopropyl-1-[(5-methyl-2-phenyl-1,3-oxazol-4-yl)methyl]-1H-pyrazol-4-yl}propoxy)phenyl]acetic acid]
29 | 98 to 99 | CCOc1cc(Cl)ccc1Cn1nc(OC(C)C)cc1CCCOc1c(CC(=O)O)cccc1OC [Example 69, (2-{3-[1-(4-chloro-2-ethoxybenzyl)-3-isopropoxy-1H-pyrazol-5-yl]propoxy}-3-methoxyphenyl)acetic acid]
30 | 96 to 98 | CC(C)Oc1cc(CCCOc2c(CC(=O)O)ccc3ccccc23)n(Cc2ccc(Cl)cc2Cl)n1 [Example 87, (1-{3-[1-(2,4-dichlorobenzyl)-3-isopropoxy-1H-pyrazol-5-yl]propoxy}-2-naphthyl)acetic acid]
31 | 132 to 134 | CCCOc1cc(CCCOc2nn(Cc3ccccc3)cc2CC(=O)O)n(Cc2ccc(Cl)cc2Cl)n1 [Example 89, (1-benzyl-3-{3-[1-(2,4-dichlorobenzyl)-3-propoxy-1H-pyrazol-5-yl]propoxy}-1H-pyrazol-4-yl)acetic acid]
32 | 78.3 to 80.8 | CN(C)CCOc1cc(CCCOc2nn(Cc3ccccc3)cc2CC(=O)O)n(Cc2ccc(Cl)cc2Cl)n1 [Example 96, [1-benzyl-3-(3-{1-(2,4-dichlorobenzyl)-3-[2-(dimethylamino)ethoxy]-1H-pyrazol-5-yl}propoxy)-1H-pyrazol-4-yl]acetic acid]
33 | 184 to 186 | CCOc1cc(C(=O)c2ccccn2)ccc1OCCOc1c(CC(=O)O)cccc1OC [Example 123, (2-{2-[2-ethoxy-4-(pyridin-2-ylcarbonyl)phenoxy]ethoxy}-3-methoxyphenyl)acetic acid]
34 | 77 to 78 | CC(C)Oc1ccc(CCCOc2cc(CCC(=O)O)n(C)n2)c(Oc2ncc(Cl)cc2Cl)c1 [Example 140, 3-[3-(3-{2-[(3,5-dichloropyridin-2-yl)oxy]-4-isopropoxyphenyl}propoxy)-1-methyl-1H-pyrazol-5-yl]propanoic acid]
35 | 114 to 115 | COCCOc1ccc(CCCOc2cc(CCC(=O)O)n(C)n2)c(Oc2ncc(C(F)(F)F)cc2Cl)c1 [Example 148, 3-(3-{3-[2-{[3-chloro-5-(trifluoromethyl)pyridin-2-yl]oxy}-4-(2-methoxyethoxy)phenyl]propoxy}-1-methyl-1H-pyrazol-5-yl)propanoic acid]
